# Test results published in US20230348453A1, “HALOGENATED-HETEROARYL AND OTHER HETEROCYCLIC KINASE INHIBITORS, AND USES THEREOF” (iOmx Therapeutics AG, priority 2020, published 2023).
# Like-named read-outs stand apart in the source and are kept apart here.
# Legend:
# SIK3 [1] = target: T1, SIK3 (Homo sapiens (Human), UniProt Q9Y2K2); assay: SIK3 kinase inhibition (IC50)
# SIK2 [2] = target: T2, SIK2 (Homo sapiens (Human), UniProt Q9H0K1); assay: SIK2 kinase inhibition (IC50); conditions: read-out: Kinase: IC50 (nM) SIK2
# PANC1 cells = assay: TNF-sensitised cell viability assay (CellTiter-Glo); conditions: Homo sapiens, PANC-1, read-out: PANC IC50 (at 100 ng/ml rHuNF)
# HCT116 cells = assay: as above; conditions: Homo sapiens, HCT-116, read-out: HCT116 IC50 (at 10 ng/ml rHuTNF)
# [3] = tested on: MC38 murine tumour cell line; assay: as above; conditions: Mus musculus; for IC50: MC-38, read-out: MC38 IC50 (at 100 ng/mL rMuTNF)
# [4] = Full pharmacokinetic study in mice; conditions: for half-life: male, CD1, mouse, plasma
# in vitro [5] = conditions: human, microsomes
# [6] = in vivo, po, 30 mg/kg
# [7] = mouse, in vivo, po, 30 mg/kg
# BRAF = BRAF (Homo sapiens (Human), UniProt P15056); assay: biochemical; conditions: read-out: BRAF residual activity (%) at 1 μM, 1 μM
# in vivo = conditions: male, CD1, mouse, po, 30 mg/kg
# in vitro [8] = conditions: dog, MDCK, MDCK-wild type cells
# [9] = microsomes
# MDR1 (P-gp) [10] = target: T3, MDR1 (P-gp) (Homo sapiens (Human), UniProt P08183); assay: in vitro; conditions: dog, MDCK-MDR1, MDCK-MDR1 cells
# [11] = Murine plasma protein binding
# in vitro [12] = conditions: mouse, microsomes
# CSF1R = CSF1R (Homo sapiens (Human), UniProt P07333); format: biochemical; conditions: Kinase Profiler
# [13] = Screening PK in mice after 30 mg/kg po
# [14] = Human plasma-protein binding
# HCK = HCK (Homo sapiens (Human), UniProt P08631); format: biochemical; conditions: Kinase Profiler
# [15] = microsomes; remark: listed apart in the source
# RET = RET (Homo sapiens (Human), UniProt P07949); assay: biochemical; conditions: read-out: RET residual activity (%) at 1 μM, 1 μM
# SIK2 [16] = target: T2, SIK2; conditions: read-out: SIK2 IC50
# SRC (GST-HIS-tag) = SRC (GST-HIS-tag) (Homo sapiens (Human), UniProt P12931); format: biochemical
# SIK3 [17] = target: T1, SIK3
# ABL1 wt = ABL1 wt (Homo sapiens (Human), UniProt P00519); format: biochemical
# [18] = Human hepatocyte stability; format: in vitro ADME; conditions: human, hepatocytes
# [19] = MDCK wild type permeability/efflux; conditions: dog
# [20] = female, C57BL/6, mouse, in vivo, 7 days
# [21] = tested on: HDAC4 phosphorylation in PANC-1 cells; assay: HDAC4 phosphorylation (Meso Scale Discovery assay); conditions: 10 ng/mL rHuTNF, 3 h
# [22] = Mouse hepatocyte stability; format: in vitro ADME; conditions: hepatocytes
# [23] = tested on: NFKB activity in MC38 cells; assay: TNF-induced NFKB activity (NFKB-dependent luciferase reporter); conditions: 10 ng/ml rMuTNF
# [24] = tested on: MC38 colorectal carcinoma tumours; assay: MC38 syngeneic mouse tumour model (Example 8.1); conditions: MC38; 40 mg/Kg, BID po
# [25] = tested on: SIK3 WT and KO MC38 clones; assay: TNF-mediated killing of SIK3 wildtype vs SIK3 knockout MC38 clones (CTG); format: cell-based, mouse; conditions: sub-optimal TNF (<10 ng/ml), 72 h
# Protocol: The assay was performed as follows: MC38 SIK3 KO clones were generated using CRISPR. Cells were transfected with RNP complexes (Cas9+gRNA) containing gRNAS targeting SIK3 or non-targeting sequences (control). […] Subsequently, single cell clones were generated by limiting dilution. CRISPR-derived mutations in single clones were detected by next-generation sequencing and analysed using CRISPResso. Knockout and wildtype clones were selected and plated overnight. […] Cells treated with different concentrations of inhibitor but without TNF served as no TNF control. Cell viability was measured by CTG assay.
# [26] = tested on: NFKB activity in PANC-1 cells; assay: TNF-induced NFKB activity (NFKB-dependent luciferase reporter); conditions: 10 ng/ml rHuTNF, PANC-1 reporter cells
# KASUMI-1 cell line = assay: Growth inhibition (GI50) of AML cell lines; format: cell-based; conditions: Homo sapiens, Kasumi 1; pMEF2C-positive; read-out: GI50 against KASUMI-1 cell line
# [27] = target: MDR1 pump (P-gp), MDCK-MDR1 cells (Homo sapiens (Human), UniProt P08183); assay: MDR1-MDCK effective efflux assay; conditions: Table 5.1B
# MDR1 (P-gp) [28] = target: T3, MDR1 (P-gp); assay: MDR1-MDCK effective efflux assay; conditions: dog; for efflux ratio: Table 5.1B
# MV4-11 cell line = assay: Growth inhibition (GI50) of AML cell lines; format: cell-based; conditions: Homo sapiens, MV4-11; pMEF2C-positive; read-out: GI50 against MV4-11 cell line
# [29] = Metabolite profile in hepatocytes / in vivo
# Description: Metabolites are identified using high-resolution mass spectrometry.
# [30] = tested on: MPAL-associated AML cell lines (including MOLM-13 and MV4-11); conditions: chemical inhibition of SIK3; cited from earlier work
# [31] = total plasma concentration at 30 mg/kg p.o dose, fold of C7 (C7 = 1×)
# Chain of CSF1R (P07333 20-972 limits assumed): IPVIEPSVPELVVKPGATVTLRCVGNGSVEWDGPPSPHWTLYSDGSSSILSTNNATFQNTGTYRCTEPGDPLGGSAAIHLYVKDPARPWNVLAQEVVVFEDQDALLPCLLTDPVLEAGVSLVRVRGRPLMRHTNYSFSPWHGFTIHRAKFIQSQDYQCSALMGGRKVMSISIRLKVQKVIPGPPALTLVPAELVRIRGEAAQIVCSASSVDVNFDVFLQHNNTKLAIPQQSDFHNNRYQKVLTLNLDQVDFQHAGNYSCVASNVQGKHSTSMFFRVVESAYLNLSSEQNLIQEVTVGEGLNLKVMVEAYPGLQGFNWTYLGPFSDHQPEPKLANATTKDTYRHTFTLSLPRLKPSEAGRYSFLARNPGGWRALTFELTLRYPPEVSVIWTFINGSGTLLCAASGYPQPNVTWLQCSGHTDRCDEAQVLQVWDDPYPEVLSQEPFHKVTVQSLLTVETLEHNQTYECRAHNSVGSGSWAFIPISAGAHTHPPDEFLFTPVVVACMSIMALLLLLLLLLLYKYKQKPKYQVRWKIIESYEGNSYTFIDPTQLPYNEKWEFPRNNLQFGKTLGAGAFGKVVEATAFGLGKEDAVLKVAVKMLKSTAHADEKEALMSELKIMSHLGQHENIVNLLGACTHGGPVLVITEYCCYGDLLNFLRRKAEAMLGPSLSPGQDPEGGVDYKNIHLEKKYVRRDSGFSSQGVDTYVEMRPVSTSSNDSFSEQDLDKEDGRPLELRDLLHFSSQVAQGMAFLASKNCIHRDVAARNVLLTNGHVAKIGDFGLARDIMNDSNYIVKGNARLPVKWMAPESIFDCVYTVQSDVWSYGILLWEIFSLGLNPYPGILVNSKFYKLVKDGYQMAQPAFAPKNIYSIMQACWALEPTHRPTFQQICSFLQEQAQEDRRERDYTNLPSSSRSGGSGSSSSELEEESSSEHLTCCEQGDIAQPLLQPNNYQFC
# Chain of ABL1 wt (P00519 118-535 limits assumed): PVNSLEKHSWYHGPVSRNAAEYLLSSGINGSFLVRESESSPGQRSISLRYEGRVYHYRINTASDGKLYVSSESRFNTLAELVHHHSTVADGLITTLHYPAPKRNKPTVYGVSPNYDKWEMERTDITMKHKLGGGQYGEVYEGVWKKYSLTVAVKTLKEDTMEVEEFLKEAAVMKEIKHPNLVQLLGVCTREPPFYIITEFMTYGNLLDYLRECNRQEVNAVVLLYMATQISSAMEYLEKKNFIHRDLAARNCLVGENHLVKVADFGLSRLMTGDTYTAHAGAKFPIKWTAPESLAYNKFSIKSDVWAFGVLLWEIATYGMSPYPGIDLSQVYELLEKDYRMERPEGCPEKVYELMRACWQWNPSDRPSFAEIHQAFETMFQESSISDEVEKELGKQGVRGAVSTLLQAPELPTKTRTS
# Chain of RET (P07949 29-1114 limits assumed): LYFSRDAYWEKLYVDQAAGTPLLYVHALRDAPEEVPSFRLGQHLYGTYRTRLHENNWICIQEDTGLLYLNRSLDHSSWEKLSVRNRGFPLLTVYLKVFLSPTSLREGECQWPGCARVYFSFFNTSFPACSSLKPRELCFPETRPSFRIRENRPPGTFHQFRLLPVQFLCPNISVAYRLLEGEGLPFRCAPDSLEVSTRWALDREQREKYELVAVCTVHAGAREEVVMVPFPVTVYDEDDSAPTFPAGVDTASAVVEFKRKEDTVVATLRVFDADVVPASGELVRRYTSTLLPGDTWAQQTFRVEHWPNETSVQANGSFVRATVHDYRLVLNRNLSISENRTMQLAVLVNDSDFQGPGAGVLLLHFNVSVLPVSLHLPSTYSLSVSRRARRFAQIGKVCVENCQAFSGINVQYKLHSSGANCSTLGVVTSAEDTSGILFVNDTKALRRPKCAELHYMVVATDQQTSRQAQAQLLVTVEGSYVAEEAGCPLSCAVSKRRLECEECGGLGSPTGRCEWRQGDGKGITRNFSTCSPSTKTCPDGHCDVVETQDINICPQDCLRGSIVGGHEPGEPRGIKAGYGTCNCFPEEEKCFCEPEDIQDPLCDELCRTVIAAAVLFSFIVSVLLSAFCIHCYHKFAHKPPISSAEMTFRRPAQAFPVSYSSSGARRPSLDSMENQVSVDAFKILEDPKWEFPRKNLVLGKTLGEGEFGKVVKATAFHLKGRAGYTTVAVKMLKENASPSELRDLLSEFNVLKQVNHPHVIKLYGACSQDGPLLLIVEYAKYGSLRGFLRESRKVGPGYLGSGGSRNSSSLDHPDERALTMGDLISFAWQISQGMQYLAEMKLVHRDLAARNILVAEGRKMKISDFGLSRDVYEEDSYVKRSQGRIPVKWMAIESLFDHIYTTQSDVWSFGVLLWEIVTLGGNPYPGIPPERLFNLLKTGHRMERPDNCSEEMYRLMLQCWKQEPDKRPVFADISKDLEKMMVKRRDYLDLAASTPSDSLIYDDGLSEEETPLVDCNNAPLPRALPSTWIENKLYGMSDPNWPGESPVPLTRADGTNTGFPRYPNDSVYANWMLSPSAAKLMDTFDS
compound,measurement,setting,value
"Cc1nc(Nc2ncc(C(=O)Nc3c(C(F)F)csc3Cl)s2)cc(N2CCN(C)C(C)C2)n1 (racemic) [Compound E16, N-(2-chloro-4-(difluoromethyl)thiophen-3-yl)-2-((2-methyl-6-(3,4-dimethylpiperazin-1-yl)pyrimidin-4-yl)amino)thiazole-5-carboxamide]",IC50,SIK3 [1],20 to 50 nM
same,IC50,SIK2 [2],< 20 nM
same,IC50,PANC1 cells,< 100 nM
same,IC50,HCT116 cells,< 100 nM
same,IC50,[3],< 100 nM
"Cc1nc(Nc2ncc(C(=O)Nc3c(Cl)ccnc3C)s2)cc(N2CCN(CCO)CC2)n1 [Compound B3, N-(4-chloro-2-methylpyridin-3-yl)-2-((6-(4-(2-hydroxyethyl)piperazin-1-yl)-2-methylpyrimidin-4-yl)amino)thiazole-5-carboxamide]",half-life,"[4]; iv, 1 mg/kg",0.2 h
same,half-life,"[4]; po, 30 mg/kg",2.4 h
same,"Cmax (ng/ml), Total","[4]; mouse, in vivo",99 ng/mL
same,"t1/2 (h), Free","[4]; mouse, in vivo",2.4 h
same,half-life,in vitro [5],0.967 h
same,"% AUCextrap, Total","[6]; male, CD1, mouse",14%
same,Plasma concentration after 6 h,[7],29 nM
same,remaining activity at 1 µM,BRAF,~50%
same,AUC(0-inf),in vivo,0.697 µM·h
same,Papp,in vitro [8]; Mean Papp A > B (10^−6 cm/s),6.8 ×10⁻⁶ cm/s
same,Papp,in vitro [8]; Mean Papp B > B (10^−6 cm/s),20 ×10⁻⁶ cm/s
same,"Human liver microsomal stability, Intrinsic clearance",[9],24 µL/min/mg
same,Papp,MDR1 (P-gp) [10],20 ×10⁻⁶ cm/s
same,Papp,MDR1 (P-gp) [10]; Mean Papp A > B (10^−6 cm/s),< 0.8 ×10⁻⁶ cm/s
same,"Murine plasma protein binding, Percentage unbound (%)",[11]; Table 5A,11%
same,"Murine plasma protein binding, Percentage unbound (%)",[11]; Table 5.1A,11%
same,half-life,in vitro [12],1.03 h
same,CSF1R residual activity,CSF1R,less than 1%
same,concentration at 2 h,"[13]; CD1, mouse, plasma, po, 30 mg/kg, Free concentration (nM) at 2 hours, mice, 30 mg/kg po, 2 hours",13 nM
same,concentration at 7 h,"[13]; CD1, mouse, plasma, po, 30 mg/kg, Free concentration (nM) at 7 hours, mice, 30 mg/kg po, 7 hours",3 nM
same,Cmax at 2 h,"[13]; mouse, plasma, po, 30 mg/kg",56 ng/mL
same,"Human plasma-protein binding, Percentage unbound (%)",[14]; Table 5A,7%
same,"Human plasma-protein binding, Percentage unbound (%)",[14]; Table 5.1A,7%
same,HCK residual activity,HCK,less than 1%
same,"Mouse liver microsomal stability, Intrinsic clearance (L/min/mg)",[15],22 µL/min/mg
same,remaining activity at 1 µM,RET,~100%
Cc1nc(Nc2ncc(C(=O)Nc3c(Cl)ccnc3C)s2)cc(N2CCN(C)CC2)n1 [Compound C10],IC50,SIK2 [16],138 nM
same,IC50,SRC (GST-HIS-tag),< 1.5 nM
same,IC50,SIK3 [17]; read-out: SIK3 IC50,493 nM
same,IC50,ABL1 wt,4.3 nM
"Cc1nc(Nc2ncc(C(=O)Nc3c(C(F)F)csc3Cl)s2)cc(N2CCN(CCO)CC2)n1 [Compound E4, N-(2-chloro-4-(difluoromethyl)thiophen-3-yl)-2-((6-(4-(2-hydroxyethyl)piperazin-1-yl)-2-methylpyrimidin-4-yl)amino)thiazole-5-carboxamide]",half-life,"[18]; read-out: Human hepatocyte stability, Half-life",1.07 h
same,microsomal CLint,"[18]; read-out: Human hepatocyte stability, Intrinsic clearance",22 µL/min/mg
same,half-life,[18]; read-out: half-life in the presence of human hepatocytes (converted),~1 h
same,half-life,in vitro [5],0.367 h
same,microsomal CLint,in vitro [5],65 µL/min/mg
same,"% AUCextrap, Free","[6]; male, CD1, mouse",0.31%
same,"% AUCextrap, Total","[6]; male, CD1, mouse",0.31%
same,"AUCinf (nM*h), Free","[6]; male, CD1, mouse",148.39 nM·h
same,"AUClast (nM*h), Free","[6]; male, CD1, mouse",147.93 nM·h
same,"Rsq, Free",[6]; mouse,0.90
same,"Rsq, Total",[6]; mouse,0.90
same,IC50,SIK3 [1]; read-out: Kinase: IC50 (nM) SIK3,< 20 nM
same,IC50,SIK2 [2],< 20 nM
same,Papp,[19],5 ×10⁻⁶ cm/s
same,efflux ratio,[19],4.1
same,DLT@BID dosing,[20],60 to 80 mg/kg
same,DLT@QD dosing,[20],n.d. @80 mg/kg
same,HRD in vivo @BID,[20],33 mg/kg
same,HRD in vivo @QD,[20],80 mg/kg
same,Inhibition of HDAC4 phosphorylation,[21],++
same,AUC(0-inf),in vivo,5.5 µM·h
same,AUC(0-t),in vivo,5.48 µM·h
same,Cmax,in vivo,1240 ng/mL
same,MRT last,in vivo,5.88 h
same,Tmax,in vivo,2 h
same,half-life,in vivo,4.49 h
same,IC50,HCT116 cells,< 100 nM
same,half-life,[22],1.3 h
same,microsomal CLint,"[22]; read-out: Mouse hepatocyte stability, Intrinsic clearance",18 µL/min/mg
same,Inhibition of NFKB activity (MC38),[23],++
same,Body weight increase (%),[24],12.0%
same,Non-treatment related death,[24],3/16
same,Tumour growth inhibition (%),[24],64%
same,TNF-mediated killing in SIK3 WT vs KO MC38 clones,[25],induced TNF-mediated killing only in SIK3 WT clones
same,Inhibition of NFKB activity (PANC-1),[26],++
same,"Murine plasma protein binding, Percentage unbound (%)",[11]; Table 5.1A,2%
same,recovery at 4 h,"[11]; mouse, plasma",80%
same,half-life,in vitro [12],0.333 h
same,microsomal CLint,in vitro [12],70 µL/min/mg
same,GI50,KASUMI-1 cell line,< 7.5 nM
same,"MDCK-MDR1 cells, Mean Efflux Ratio (MDR1)",[27],43
same,Papp,MDR1 (P-gp) [28]; MDCK-MDR1,3 ×10⁻⁶ cm/s
same,efflux ratio,"MDR1 (P-gp) [28]; MDCK-MDR1, MDCK-MDR1 cells, Mean Efflux Ratio (MDR1)",40 to 50
same,efflux ratio,"MDR1 (P-gp) [28]; MDCK-MDR1, P-gP driven efflux ratio (MDR1/wt)",11
same,GI50,MV4-11 cell line,< 750 nM
same,"SIK3 IC50 (nM), relative to C7",SIK3 [17]; fold of the value of compound C7 (C7 = 1×),0.6×
same,CSF1R residual activity,CSF1R,less than 1%
same,fold increase of concentration at 6 h compared to dasatinib,"[13]; mice, 30 mg/kg po, 6 h",3 fold
same,fold improvement of free serum concentration over C7,"[13]; mouse, in vivo",5 fold
same,fold improvement of total serum concentration over C7,"[13]; mouse, in vivo",9.6 fold
same,Cmax at 2 h,"[13]; mouse, plasma, po, 30 mg/kg",1210 ng/mL
same,concentration at 6 h,"[13]; mouse, plasma, po, 30 mg/kg, Free plasma concentration after 6 h (nM), mice, 30 mg/kg po, 6 h",17.9 nM
same,concentration at 6 h,"[13]; mouse, plasma, po, 30 mg/kg, Plasma concentration after 6 h (nM), mice, 30 mg/kg po, 6 h",662 nM
same,"AUC0-last (nM*h), relative to C7",[13]; [31],4.7×
same,"C max (ng/ml), relative to C7",[13]; [31],2.6×
same,"MRT0-last (h), relative to C7",[13]; [31],2×
same,"t1/2 (h), relative to C7",[13]; [31],3.2×
same,"Human plasma-protein binding, Percentage unbound (%)",[14]; Table 5.1A,<1%
same,recovery at 4 h,"[14]; human, plasma",77%
same,HCK residual activity,HCK,less than 1%
same,IC50,[3],< 100 nM
same,EC50,"[3]; MC-38, read-out: mean EC50 of sensitising MC38 tumour cells to TNF-mediated killing",< 100 nM
same,quinone-imine reactive metabolite,[29],not observed
HG-9-91-01,viability of AML cell lines,[30],strongly decreases viability
